Values of other authors as cited in patent US20210161190A1, “CORE BODY TEMPERATURE REDUCING AGENT, FOOD PRODUCT, AND SLEEP IMPROVING AGENT” (JAPAN TOBACCO INC., priority 2018, published 2021).

What was measured:
[1] = intake of glycine
[2] = system: mouse models of sleep disorder caused by imposed stress
[3] = stress-imposed mouse models, continuous administration 350 to 3000 mg/kg of body weight per day

Row | SMILES | core body temperature after intake [1] | percentage of Non-REM sleep [1] | circadian variation in core body temperature ([2]; mice without imposed stress) | REM sleep [2, 3] | non-REM sleep [2, 3]
1 | NCC(=O)O [glycine] | reduces core body temperature | improves the percentage of Non-REM sleep |  |  | 
2 | O=C[C@H](O)[C@H](O)[C@H](O)CO [D-ribose] |  |  | hardly affected | suppressed reduction in REM sleep | promoted increases in non-REM sleep
